Data published in US20260325473A1, “N-Beta-Hydroxybutyryl-Amino Acids and Related Compositions and Methods” (The Board of Trustees of the Leland Stanford Junior …, priority 2023, published 2026).

Columns and labels:
[1] = Metabolite quantitation in mouse plasma (QQQ-LC/MS); format: in vivo
Method: Preparation of plasma samples for LC-MS analysis. Plasma was collected from mice via a submandibular bleed into lithium heparin tubes (BD, 365985) and immediately transferred onto ice. The blood was centrifuged at 4° C. at 5000 rpm for 5 min and the top layer of plasma was aliquoted and frozen at −80 °C. To extract polar metabolites from plasma for LC-MS analysis, 150 μl of a 2:1 mixture of acetonitrile/methanol was added to 50 μl of plasma. The mixture was centrifuged at 4° C. for 10 min at 15,000 rpm and the supernatant was transferred to a LC-MS vial.
Targeted metabolomics. Targeted measurements were performed using an Agilent 6470 triple quadrupole LC-MS instrument. MS analysis was performed using AJS in negative mode. The AJS source parameters were set as follows: the dry gas temperature was set at 250° C. with a gas flow of 12 l/min and the nebulizer pressure at 25 psi; the sheath gas temperature was set to 300° C. with the sheath gas flow set at 12 l/min; and the capillary voltage was set to 3,500 V. Separation of polar metabolites was performed as described above in the ‘Untargeted measurements of metabolites by LC-MS’ section. Multiple reaction monitoring was performed for the indicated metabolites with the listed dwell times, fragmentor voltage, collision energies, cell accelerator voltages and polarities. Quantification of the endogenous metabolite concentrations were performed by generating a standard curve with known concentrations of each metabolite. Metabolite standards were analyzed alongside the plasma samples using the same targeted triple quadrupole LC/MS method. A calibration standard curve generated from the metabolite standard concentrations and total peak areas were used to calculate the concentrations of each endogenous metabolite. The dilution of the plasma during the sample preparation was also taken into account for the quantification.

brain lysate proteins = assay: Competition of X-Phe photoprobe-labeled brain proteins, quantitative shotgun proteomics; format: binding, mouse
Method: Shotgun proteomics of X-Phe photoprobe-labeled proteins. Brains from wild type C57BL/6J mice were harvested and homogenized using a bead blaster in PBS. Brain homogenate was centrifuged (15,000 rpm, 10 min) to yield the cytosolic supernatant and membrane pellet fractions. The cytosolic fraction was transferred to a new eppie and centrifuged again (15,000 rpm, 10 min). This process was repeated 4 times until no pellet was present after centrifugation. The membrane pellet was washed with 1 ml PBS and centrifuged (15,000 rpm, 10 min); this step was also repeated 4 times to remove any cytosolic protein contamination. After the centrifugation steps, the membrane pellet was re-suspended in PBS and sonicated. For competition experiments, brain lysate was normalized to 2 mg/ml in PBS and incubated with competitors at the indicated concentrations at room temperature for 30 minutes. 100 μM of the photoprobe was added and the reactions incubated on ice for 10 minutes protected from light. Reactions were then put under UV for 1 min on a UV Stratalinker. A biotin click reaction was performed by adding the following reagents to the indicated final concentrations: […], 1 mM CuSO4, 1 mM TCEP (freshly prepared), 30 μM Biotin-N3. Reactions were allowed to proceed for 1 hour at room temp, protected from light, and while rotating. The following prep was adapted from Niphakis et al. 2015. To each reaction, the following solvents were added in order, 4 ml cold methanol, 1 ml cold chloroform, 2 ml cold PBS. The mixture was vortexed well and centrifuged (4,600×g, 15 min, 4° C.). After centrifugation the organic and aqueous layers were removed without disruption of the protein disc. The protein disc was washed with a cold 1:1 mixture of methanol:chloroform 3 times. After the final wash, the protein disc was re-suspended in a 4:1 mixture of methanol:chloroform and sonicated. The insoluble protein was pelleted by centrifugation (4,600×g, 15 min, 4 C) and the pellet re-suspended in freshly prepared 500 μl of 6 M urea in PBS. 20 μl of 10% (w/v) SDS was added to the solution. The solution was then warmed in a 37 C water bath for 10 min to help dissolve poorly soluble protein. A streptavidin pulldown was the performed on the protein mixture. 250 μl of streptavidin beads were washed 3 times with 1 ml PBS. Protein samples were diluted with 5.5 ml of 0.25% SDS in PBS and incubated with streptavidin beads for 1.5 hr at room temperature. Following incubation, beads were washed 5 times each with 0.25% SDS in PBS, then PBS, then lastly with ultra-pure water Steptavidin beads were suspended in 150 μL resuspension buffer (1 M urea, 50 mM Tris-HCl, pH 8). Proteins were digested with 3 μg of trypsin for 4 hours. Digested peptides were reduced with 5 mM TCEP for 10 minutes. Cys residues were alkylated using 15 mM iodoacetimide (IAA) for 20 minutes. Finally, excess IAA was quenched with 10 mM DTT. Acidified digested peptides were desalted over C18 StageTips [PMID: 12585499]. Peptides were then eluted with 80% acetonitrile, 0.1% TFA and dried in a speedvac. Dried samples were reconstituted with 200 mM EPPS buffer, pH 8.0, and labelled with TMT reagents (Thermo Fisher Scientific). Following incubation at room temperature for 2 h, the reactions were quenched with hydroxylamine to a final concentration of 0.5% (v/v). […]

CNDP2 [2] = target: T1, CNDP2 (Mus musculus, UniProt Q9D1A2); conditions: Li et al. 2022; cited from earlier work
T1 sequence (Q9D1A2 1-475): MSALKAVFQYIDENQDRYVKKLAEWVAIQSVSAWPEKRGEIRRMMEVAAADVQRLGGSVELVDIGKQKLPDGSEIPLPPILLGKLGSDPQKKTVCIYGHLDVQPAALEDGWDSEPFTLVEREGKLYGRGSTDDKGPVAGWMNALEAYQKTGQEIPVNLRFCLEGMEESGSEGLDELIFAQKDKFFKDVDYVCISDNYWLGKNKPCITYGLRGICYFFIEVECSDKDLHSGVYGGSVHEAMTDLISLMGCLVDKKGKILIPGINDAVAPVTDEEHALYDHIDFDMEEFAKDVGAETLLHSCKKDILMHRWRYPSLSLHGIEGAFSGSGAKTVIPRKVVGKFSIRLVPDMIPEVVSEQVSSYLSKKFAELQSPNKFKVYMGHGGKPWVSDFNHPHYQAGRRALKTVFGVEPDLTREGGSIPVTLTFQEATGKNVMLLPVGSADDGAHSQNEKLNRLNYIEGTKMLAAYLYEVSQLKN

food intake = conditions: Li et al. 2022; cited from earlier work
CNDP2 [3] = target: T1, CNDP2; assay: In vitro synthase (condensation) activity, lysates of CNDP2-transfected HEK293T cells; format: biochemical; design: expressed in transfected cells; host or cells: HEK293T (lysate); conditions: role: product; lactate and BHB at varying concentrations, phenylalanine 20 mM
Method: In vitro enzyme activity assays. HEK293T cells were transfected with GFP, CNDP2 or CNDP2-E166A using PolyFect (Qiagen 301105) according to the manufacturer's instructions. The medium was changed one day post-transfection. After an additional 24 h, the cells were harvested in PBS, lysed by sonication and centrifuged (10 min at 15,000 rpm) to remove debris. Supernatant was collected and protein concentrations were adjusted. The in vitro reactions were conducted in Eppendorf tubes with 100 μL of 1 mg/mL protein and 20 mM substrates for keto amino acid synthase activity assays and. Reactions were incubated for 1 h at 37° C. and 20 μl of 1 M HCl were added to acidify the medium and to protonate keto amino acids. Reactions were vortexed and 400 μL of ethyl acetate were added to each reaction. Reactions were vortexed for 30 s to extract keto amino acids into the organic layer and centrifuged at 4° C. for 10 min at 15,000 r.p.m. A total of 300 μl from the top layer was transferred to a new Eppendorf tube and dried down under a stream of nitrogen. The residue was re-suspended in 150 μl of an 2:1:1 mixture of acetonitrile: methanol: water. The mixture was centrifuged at 4° C. for 10 min at 15,000 r.p.m. and the supernatant was transferred to a LC-MS vial.

CNDP2 [4] = target: T1, CNDP2; assay: as above; format: biochemical; design: expressed in transfected cells; host or cells: HEK293T (lysate); conditions: role: substrate; organic acids 1 mM with 10 mM phenylalanine

elevation after acute treadmill running ([1]; 15 min running) [fold]	effect of ketone ester administration on level ([1]; 30 min after ketone drink, 3 mg/g)	effect of strenuous and prolonged exercise on level ([1]; 30 min strenuous running)	products formed from combined lactate and BHB (CNDP2 [3])	CNDP2 activity towards organic acid substrates (CNDP2 [4])	SMILES	competition of X-Phe photoprobe-labeled proteins (brain lysate proteins; 100 μM photoprobe, 50-fold excess competitor) [%]	number of the 32 Keto-Phe targets also >80% competed by Lac-Phe (brain lysate proteins; 50-fold excess Lac-Phe)	share of the 32 Keto-Phe targets also >80% competed by Lac-Phe (brain lysate proteins; 50-fold excess Lac-Phe) [%]	Lac-Phe levels upon genetic ablation of CNDP2 (CNDP2 [2])	food intake (food intake)
8	without affecting Lac-Phe levels	robust co-induction	simultaneous production		C[C@H](O)C(=O)N[C@@H](Cc1ccccc1)C(=O)O [Lac-Phe, N-lactoyl phenylalanine]	> 80	30 out of 32	94	dramatically reduces Lac-Phe levels	suppresses food intake
				unable to accept	CC(=O)O [acetate]					
